In ChEMBL document CHEMBL4507258 (2021):

Assays:
Conditions in all cases: Compound concentration 1000.0 nM
[1] = molecular target: Serine/threonine-protein kinase/endoribonuclease IRE1 (Homo sapiens) (UniProt O75460)
[2] = molecular target: Cyclin-dependent kinase 13 (Homo sapiens) (UniProt Q14004)
[3] = molecular target: Tyrosine-protein kinase Lck (Homo sapiens) (UniProt P06239)
[4] = molecular target: Ephrin type-A receptor 4 (Homo sapiens) (UniProt P54764)
[5] = molecular target: Dual specificity protein kinase CLK2 (Homo sapiens) (UniProt P49760)
[6] = molecular target: 3-phosphoinositide-dependent protein kinase 1 (Homo sapiens) (UniProt O15530)
[7] = molecular target: Tyrosine-protein kinase ABL1 (Homo sapiens) (UniProt P00519)
[8] = tested on: Phosphatidylinositol 4,5-bisphosphate 3-kinase catalytic subunit alpha isoform (Homo sapiens), P42336 [H1047L]
[9] = molecular target: Myosin light chain kinase 2, skeletal/cardiac muscle (Homo sapiens) (UniProt Q9H1R3)
[10] = tested on: ALK tyrosine kinase receptor (Homo sapiens), Q9UM73 [L1196M]
[11] = molecular target: Receptor tyrosine-protein kinase erbB-4 (Homo sapiens) (UniProt Q15303)
[12] = molecular target: Ribosomal protein S6 kinase alpha-5 (Homo sapiens) (UniProt O75582)
[13] = molecular target: Proto-oncogene tyrosine-protein kinase ROS (Homo sapiens) (UniProt P08922)
[14] = molecular target: Cyclin-dependent kinase 14 (Homo sapiens) (UniProt O94921)
[15] = molecular target: Serine/threonine-protein kinase RIO2 (Homo sapiens) (UniProt Q9BVS4)
[16] = molecular target: Serine/threonine-protein kinase Nek1 (Homo sapiens) (UniProt Q96PY6)
[17] = tested on: Mast/stem cell growth factor receptor Kit (Homo sapiens), P10721 [V559D,V654A]
[18] = molecular target: Ribosomal protein S6 kinase beta-1 (Homo sapiens) (UniProt P23443)
[19] = molecular target: Dual specificity tyrosine-phosphorylation-regulated kinase 1B (Homo sapiens) (UniProt Q9Y463)
[20] = tested on: Tyrosine-protein kinase ABL1 (Homo sapiens), P00519 [E255K]
[21] = molecular target: Calcium/calmodulin-dependent protein kinase kinase 1 (Homo sapiens) (UniProt Q8N5S9)
[22] = molecular target: Serine/threonine-protein kinase SIK2 (Homo sapiens) (UniProt Q9H0K1)
[23] = tested on: Mast/stem cell growth factor receptor Kit (Homo sapiens), P10721 [A829P]
[24] = molecular target: Serine/threonine-protein kinase Nek5 (Homo sapiens) (UniProt Q6P3R8)
[25] = molecular target: Casein kinase I isoform alpha-like (Homo sapiens) (UniProt Q8N752)
[26] = tested on: Epidermal growth factor receptor (Homo sapiens), P00533 [UNDEFINED MUTATION]
[27] = molecular target: Discoidin domain-containing receptor 2 (Homo sapiens) (UniProt Q16832)
[28] = molecular target: Casein kinase I isoform gamma-3 (Homo sapiens) (UniProt Q9Y6M4)
[29] = molecular target: Tyrosine-protein kinase JAK1 (Homo sapiens) (UniProt P23458)
[30] = tested on: Mast/stem cell growth factor receptor Kit (Homo sapiens), P10721 [D816V]
[31] = molecular target: Serine/threonine-protein kinase TAO1 (Homo sapiens) (UniProt Q7L7X3)
[32] = tested on: Phosphatidylinositol 4,5-bisphosphate 3-kinase catalytic subunit alpha isoform (Homo sapiens), P42336 [I800L]
[33] = molecular target: Calcium/calmodulin-dependent protein kinase type IV (Homo sapiens) (UniProt Q16566)
[34] = molecular target: Activin receptor type-1 (Homo sapiens) (UniProt Q04771)
[35] = molecular target: Tyrosine-protein kinase CSK (Homo sapiens) (UniProt P41240)
[36] = tested on: Receptor-type tyrosine-protein kinase FLT3 (Homo sapiens), P36888 [K663Q]
[37] = molecular target: Protein kinase C eta type (Homo sapiens) (UniProt P24723)
[38] = molecular target: RAC-beta serine/threonine-protein kinase (Homo sapiens) (UniProt P31751)
[39] = molecular target: Dual specificity mitogen-activated protein kinase kinase 3 (Homo sapiens) (UniProt P46734)
[40] = molecular target: Wee1-like protein kinase 2 (Homo sapiens) (UniProt P0C1S8)
[41] = molecular target: Serine/threonine-protein kinase RIO1 (Homo sapiens) (UniProt Q9BRS2)
[42] = molecular target: Serine/threonine-protein kinase MRCK alpha (Homo sapiens) (UniProt Q5VT25)
[43] = molecular target: Non-receptor tyrosine-protein kinase TNK1 (Homo sapiens) (UniProt Q13470)
[44] = molecular target: Ephrin type-A receptor 2 (Homo sapiens) (UniProt P29317)
[45] = molecular target: Serine/threonine-protein kinase Sgk2 (Homo sapiens) (UniProt Q9HBY8)

Dual specificity mitogen-activated protein kinase kinase 3 (Homo sapiens), sequence (P46734 whole entry): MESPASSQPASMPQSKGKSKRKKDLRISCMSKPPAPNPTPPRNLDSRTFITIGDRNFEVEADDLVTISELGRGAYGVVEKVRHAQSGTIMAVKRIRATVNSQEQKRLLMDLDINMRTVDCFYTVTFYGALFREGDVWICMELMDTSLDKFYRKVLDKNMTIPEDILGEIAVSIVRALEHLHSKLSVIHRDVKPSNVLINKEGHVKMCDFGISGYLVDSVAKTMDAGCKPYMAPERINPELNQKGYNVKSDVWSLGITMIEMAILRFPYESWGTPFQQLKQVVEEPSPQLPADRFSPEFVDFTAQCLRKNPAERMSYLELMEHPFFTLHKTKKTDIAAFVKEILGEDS
Discoidin domain-containing receptor 2 (Homo sapiens), sequence (Q16832 whole entry, the tested form may be a part, canonical isoform): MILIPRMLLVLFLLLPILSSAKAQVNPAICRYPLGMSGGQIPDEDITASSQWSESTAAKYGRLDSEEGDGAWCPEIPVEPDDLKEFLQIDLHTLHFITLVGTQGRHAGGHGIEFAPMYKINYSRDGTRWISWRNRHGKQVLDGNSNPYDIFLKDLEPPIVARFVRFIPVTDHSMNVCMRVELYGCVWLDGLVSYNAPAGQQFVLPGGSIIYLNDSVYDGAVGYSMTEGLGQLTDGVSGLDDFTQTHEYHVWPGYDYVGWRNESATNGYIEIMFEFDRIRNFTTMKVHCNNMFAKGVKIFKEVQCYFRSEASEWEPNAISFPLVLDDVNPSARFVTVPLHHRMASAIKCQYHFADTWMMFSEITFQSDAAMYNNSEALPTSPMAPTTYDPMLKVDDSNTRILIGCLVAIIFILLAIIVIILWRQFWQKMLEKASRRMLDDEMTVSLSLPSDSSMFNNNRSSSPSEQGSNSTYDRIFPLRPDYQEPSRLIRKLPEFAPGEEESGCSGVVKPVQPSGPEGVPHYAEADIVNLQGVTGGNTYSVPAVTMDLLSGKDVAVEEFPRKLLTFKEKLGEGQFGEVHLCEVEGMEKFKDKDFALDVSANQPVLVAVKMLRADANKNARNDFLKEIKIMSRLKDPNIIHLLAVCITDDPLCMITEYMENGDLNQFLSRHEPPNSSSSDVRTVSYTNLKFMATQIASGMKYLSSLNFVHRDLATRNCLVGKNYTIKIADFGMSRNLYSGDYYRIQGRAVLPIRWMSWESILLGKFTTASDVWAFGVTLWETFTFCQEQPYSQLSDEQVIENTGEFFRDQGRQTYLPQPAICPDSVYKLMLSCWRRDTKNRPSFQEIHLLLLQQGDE
Serine/threonine-protein kinase RIO2 (Homo sapiens), sequence (Q9BVS4 whole entry, looked up): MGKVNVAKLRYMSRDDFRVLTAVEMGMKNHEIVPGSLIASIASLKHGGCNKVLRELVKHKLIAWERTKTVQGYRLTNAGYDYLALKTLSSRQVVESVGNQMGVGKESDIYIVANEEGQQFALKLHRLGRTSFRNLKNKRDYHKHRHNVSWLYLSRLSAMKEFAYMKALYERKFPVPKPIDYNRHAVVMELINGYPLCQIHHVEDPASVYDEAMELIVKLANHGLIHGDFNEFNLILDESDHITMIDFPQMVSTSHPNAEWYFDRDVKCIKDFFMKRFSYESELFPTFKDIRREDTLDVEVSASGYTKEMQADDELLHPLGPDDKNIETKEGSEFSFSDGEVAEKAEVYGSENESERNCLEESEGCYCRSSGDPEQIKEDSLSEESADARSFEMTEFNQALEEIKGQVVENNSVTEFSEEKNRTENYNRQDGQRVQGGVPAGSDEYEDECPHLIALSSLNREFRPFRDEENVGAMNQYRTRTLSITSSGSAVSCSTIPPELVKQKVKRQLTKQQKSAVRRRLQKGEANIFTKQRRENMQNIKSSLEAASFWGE
Tyrosine-protein kinase CSK (Homo sapiens), sequence (P41240 2-450 limits assumed): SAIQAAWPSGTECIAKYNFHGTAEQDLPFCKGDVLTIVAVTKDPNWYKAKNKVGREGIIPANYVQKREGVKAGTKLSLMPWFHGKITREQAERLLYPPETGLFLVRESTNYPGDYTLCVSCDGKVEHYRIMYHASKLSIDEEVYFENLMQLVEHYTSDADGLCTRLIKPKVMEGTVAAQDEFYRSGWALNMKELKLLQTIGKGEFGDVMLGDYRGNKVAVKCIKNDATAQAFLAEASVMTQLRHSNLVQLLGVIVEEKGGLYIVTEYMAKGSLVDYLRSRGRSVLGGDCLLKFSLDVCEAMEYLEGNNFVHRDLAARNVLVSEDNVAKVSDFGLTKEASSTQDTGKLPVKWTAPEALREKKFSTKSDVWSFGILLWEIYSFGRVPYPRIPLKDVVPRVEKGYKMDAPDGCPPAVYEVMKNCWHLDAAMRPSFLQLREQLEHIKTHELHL
Dual specificity tyrosine-phosphorylation-regulated kinase 1B (Homo sapiens), sequence (Q9Y463 whole entry, looked up): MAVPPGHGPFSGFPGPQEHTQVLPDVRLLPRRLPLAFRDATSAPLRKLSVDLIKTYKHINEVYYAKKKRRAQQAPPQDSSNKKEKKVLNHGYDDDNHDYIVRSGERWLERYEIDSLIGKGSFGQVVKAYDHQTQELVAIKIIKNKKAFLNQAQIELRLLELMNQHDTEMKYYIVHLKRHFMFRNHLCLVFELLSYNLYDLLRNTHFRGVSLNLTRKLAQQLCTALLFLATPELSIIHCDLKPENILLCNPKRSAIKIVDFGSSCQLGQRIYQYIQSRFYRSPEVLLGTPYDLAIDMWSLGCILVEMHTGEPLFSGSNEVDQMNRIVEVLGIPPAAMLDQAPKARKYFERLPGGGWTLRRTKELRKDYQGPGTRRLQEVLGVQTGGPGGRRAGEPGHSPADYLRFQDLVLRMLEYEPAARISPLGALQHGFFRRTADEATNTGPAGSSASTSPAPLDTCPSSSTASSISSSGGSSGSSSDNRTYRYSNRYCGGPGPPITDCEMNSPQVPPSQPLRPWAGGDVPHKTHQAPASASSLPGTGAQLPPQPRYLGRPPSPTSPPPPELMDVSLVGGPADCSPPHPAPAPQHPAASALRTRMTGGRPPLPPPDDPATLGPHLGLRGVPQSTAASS
Serine/threonine-protein kinase TAO1 (Homo sapiens), sequence (Q7L7X3 whole entry, canonical isoform): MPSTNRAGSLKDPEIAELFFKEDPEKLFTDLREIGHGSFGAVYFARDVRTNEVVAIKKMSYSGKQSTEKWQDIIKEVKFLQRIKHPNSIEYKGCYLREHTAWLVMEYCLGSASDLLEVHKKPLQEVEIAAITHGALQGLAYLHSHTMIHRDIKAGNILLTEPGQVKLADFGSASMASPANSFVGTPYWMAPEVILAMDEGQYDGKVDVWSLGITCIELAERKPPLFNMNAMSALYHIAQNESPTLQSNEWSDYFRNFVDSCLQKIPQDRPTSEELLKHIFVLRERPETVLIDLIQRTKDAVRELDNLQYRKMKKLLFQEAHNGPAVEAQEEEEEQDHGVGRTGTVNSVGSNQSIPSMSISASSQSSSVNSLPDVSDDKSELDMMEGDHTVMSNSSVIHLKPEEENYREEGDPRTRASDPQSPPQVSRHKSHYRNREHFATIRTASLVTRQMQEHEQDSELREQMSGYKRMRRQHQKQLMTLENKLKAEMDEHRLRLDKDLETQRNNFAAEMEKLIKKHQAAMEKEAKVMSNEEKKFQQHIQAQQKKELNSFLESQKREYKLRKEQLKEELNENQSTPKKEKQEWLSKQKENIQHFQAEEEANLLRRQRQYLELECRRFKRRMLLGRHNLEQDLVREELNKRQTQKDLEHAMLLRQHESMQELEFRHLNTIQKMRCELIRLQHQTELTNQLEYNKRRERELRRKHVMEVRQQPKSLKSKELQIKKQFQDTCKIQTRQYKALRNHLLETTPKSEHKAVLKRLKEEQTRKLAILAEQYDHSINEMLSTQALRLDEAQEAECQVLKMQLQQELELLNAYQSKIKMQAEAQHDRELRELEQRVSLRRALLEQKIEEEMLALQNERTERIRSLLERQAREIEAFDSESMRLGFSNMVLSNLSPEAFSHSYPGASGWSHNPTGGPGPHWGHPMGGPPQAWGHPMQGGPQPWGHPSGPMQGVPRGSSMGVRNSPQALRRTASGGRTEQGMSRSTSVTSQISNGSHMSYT
Tyrosine-protein kinase ABL1 (Homo sapiens), P00519 [E255K], sequence (P00519 whole entry E255K): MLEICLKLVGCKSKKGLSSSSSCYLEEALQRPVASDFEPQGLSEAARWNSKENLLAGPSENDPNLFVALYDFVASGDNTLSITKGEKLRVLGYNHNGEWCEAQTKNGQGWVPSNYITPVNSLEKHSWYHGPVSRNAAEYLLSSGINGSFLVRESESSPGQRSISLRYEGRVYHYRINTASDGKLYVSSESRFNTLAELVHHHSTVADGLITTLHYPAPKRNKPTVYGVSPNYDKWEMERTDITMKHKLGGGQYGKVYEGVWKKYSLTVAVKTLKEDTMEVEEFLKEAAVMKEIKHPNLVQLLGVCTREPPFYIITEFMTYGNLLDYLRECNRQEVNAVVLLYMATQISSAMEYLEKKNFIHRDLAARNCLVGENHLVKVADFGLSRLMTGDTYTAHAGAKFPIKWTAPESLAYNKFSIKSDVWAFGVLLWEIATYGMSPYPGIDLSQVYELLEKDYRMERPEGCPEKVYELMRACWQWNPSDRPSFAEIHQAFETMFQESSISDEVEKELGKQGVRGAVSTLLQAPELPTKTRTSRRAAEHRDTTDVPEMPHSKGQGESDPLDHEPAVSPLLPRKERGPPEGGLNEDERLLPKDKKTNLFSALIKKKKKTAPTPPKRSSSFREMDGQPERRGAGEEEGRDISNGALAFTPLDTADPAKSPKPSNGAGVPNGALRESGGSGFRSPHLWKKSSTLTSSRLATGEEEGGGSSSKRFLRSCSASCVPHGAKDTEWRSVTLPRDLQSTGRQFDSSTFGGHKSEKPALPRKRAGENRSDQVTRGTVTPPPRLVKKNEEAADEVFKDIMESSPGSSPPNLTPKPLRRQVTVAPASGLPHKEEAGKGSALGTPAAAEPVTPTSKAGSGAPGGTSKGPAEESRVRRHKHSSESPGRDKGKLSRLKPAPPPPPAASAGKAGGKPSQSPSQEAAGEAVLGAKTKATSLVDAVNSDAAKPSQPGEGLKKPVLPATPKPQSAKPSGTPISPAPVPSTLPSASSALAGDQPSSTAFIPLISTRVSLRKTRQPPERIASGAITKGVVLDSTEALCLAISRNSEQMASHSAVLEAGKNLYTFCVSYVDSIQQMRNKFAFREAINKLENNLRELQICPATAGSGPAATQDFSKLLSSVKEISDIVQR
Tyrosine-protein kinase ABL1 (Homo sapiens), sequence (P00519 whole entry, canonical isoform): as the sequence (P00519 whole entry E255K) above, with K255E counted along it

With `CCCCN(CCCC)C(=O)CN1C[C@@H](c2cc(OC)c3c(c2)OCO3)[C@H](C(=O)O)[C@H]1CC(C)(C)CCC` [A-545] the residual activity [1] was 100%, the residual activity [2] was 100% and the residual activity [3] was 99.1%. For the same compound, the residual activity [4] was 95.7%, the residual activity [5] was 100% and the residual activity [6] was 77.3%. It also gave a residual activity [7] of 100%, a residual activity [8] of 62.4% and a residual activity [9] of 100%. It also gave a residual activity [10] of 100%, a residual activity [11] of 95% and a residual activity [12] of 74.4%. For the same compound, the residual activity [13] was 100%, the residual activity [14] was 100% and the residual activity [15] was 83.2%. It also gave a residual activity [16] of 100%, a residual activity [17] of 100% and a residual activity [18] of 99%. For the same compound, the residual activity [19] was 95%, the residual activity [20] was 93.5% and the residual activity [21] was 100%. It also gave a residual activity [22] of 100%, a residual activity [23] of 76.5% and a residual activity [24] of 87.9%. The residual activity [25] was 91.1%, the residual activity [26] was 100% and the residual activity [27] was 99.1%. The residual activity [28] was 100%, the residual activity [29] was 79% and the residual activity [30] was 95.8%. The residual activity [31] was 97.4%, the residual activity [32] was 100% and the residual activity [33] was 100%. It also gave a residual activity [34] of 100%, a residual activity [35] of 100% and a residual activity [36] of 80.1%. For the same compound, the residual activity [37] was 0%, the residual activity [38] was 100% and the residual activity [39] was 89.5%. For the same compound, the residual activity [40] was 89.1%, the residual activity [41] was 100% and the residual activity [42] was 96.6%. For the same compound, the residual activity [43] was 100%, the residual activity [44] was 97.8% and the residual activity [45] was 78.5%.

Compound `CCCCN(CCCC)C(=O)CN1C[C@H](c2cc(OC)c3c(c2)OCO3)[C@@H](C(=O)O)[C@@H]1CC(C)(C)CCC` [ABT-546] has a residual activity [1] of 70.6%, a residual activity [2] of 52.5% and a residual activity [3] of 100%. The residual activity [4] was 100%, the residual activity [5] was 100% and the residual activity [6] was 100%. It also gave a residual activity [7] of 79.8%, a residual activity [8] of 100% and a residual activity [9] of 100%. It also gave a residual activity [10] of 100%, a residual activity [11] of 100% and a residual activity [12] of 100%. For the same compound, the residual activity [13] was 100%, the residual activity [14] was 100% and the residual activity [15] was 65.3%. The residual activity [16] was 100%, the residual activity [17] was 100% and the residual activity [18] was 92.8%. The residual activity [19] was 100%, the residual activity [20] was 83.7% and the residual activity [21] was 100%. The residual activity [22] was 100%, the residual activity [23] was 80.9% and the residual activity [24] was 100%. It also gave a residual activity [25] of 100%, a residual activity [26] of 95.6% and a residual activity [27] of 76.6%. The residual activity [28] was 100%, the residual activity [29] was 98% and the residual activity [30] was 100%. The residual activity [31] was 55.6%, the residual activity [32] was 52.9% and the residual activity [33] was 100%. For the same compound, the residual activity [34] was 100%, the residual activity [35] was 100% and the residual activity [36] was 100%. For the same compound, the residual activity [37] was 100%, the residual activity [38] was 100% and the residual activity [39] was 57.5%. For the same compound, the residual activity [40] was 100%, the residual activity [41] was 65.8% and the residual activity [42] was 100%. It also gave a residual activity [43] of 100%, a residual activity [44] of 100% and a residual activity [45] of 69.9%.
